The results in this text go back to ChEMBL document CHEMBL2074410, “Chelerythrine stimulates GSH transport by rat Mrp2 (Abcc2) expressed in canine kidney cells” (Am J Physiol Gastrointest Liver Physiol, 2003).

The target in the series is ATP-binding cassette sub-family C member 2 (Rattus norvegicus, UniProt Q63120). The series is described as follows: TP_TRANSPORTER: transcellular transport in MDCKII(+GSH). Format: functional, cell-based. To be noted: dog, mdck-ii.
Sequence of ATP-binding cassette sub-family C member 2 (Q63120 whole entry): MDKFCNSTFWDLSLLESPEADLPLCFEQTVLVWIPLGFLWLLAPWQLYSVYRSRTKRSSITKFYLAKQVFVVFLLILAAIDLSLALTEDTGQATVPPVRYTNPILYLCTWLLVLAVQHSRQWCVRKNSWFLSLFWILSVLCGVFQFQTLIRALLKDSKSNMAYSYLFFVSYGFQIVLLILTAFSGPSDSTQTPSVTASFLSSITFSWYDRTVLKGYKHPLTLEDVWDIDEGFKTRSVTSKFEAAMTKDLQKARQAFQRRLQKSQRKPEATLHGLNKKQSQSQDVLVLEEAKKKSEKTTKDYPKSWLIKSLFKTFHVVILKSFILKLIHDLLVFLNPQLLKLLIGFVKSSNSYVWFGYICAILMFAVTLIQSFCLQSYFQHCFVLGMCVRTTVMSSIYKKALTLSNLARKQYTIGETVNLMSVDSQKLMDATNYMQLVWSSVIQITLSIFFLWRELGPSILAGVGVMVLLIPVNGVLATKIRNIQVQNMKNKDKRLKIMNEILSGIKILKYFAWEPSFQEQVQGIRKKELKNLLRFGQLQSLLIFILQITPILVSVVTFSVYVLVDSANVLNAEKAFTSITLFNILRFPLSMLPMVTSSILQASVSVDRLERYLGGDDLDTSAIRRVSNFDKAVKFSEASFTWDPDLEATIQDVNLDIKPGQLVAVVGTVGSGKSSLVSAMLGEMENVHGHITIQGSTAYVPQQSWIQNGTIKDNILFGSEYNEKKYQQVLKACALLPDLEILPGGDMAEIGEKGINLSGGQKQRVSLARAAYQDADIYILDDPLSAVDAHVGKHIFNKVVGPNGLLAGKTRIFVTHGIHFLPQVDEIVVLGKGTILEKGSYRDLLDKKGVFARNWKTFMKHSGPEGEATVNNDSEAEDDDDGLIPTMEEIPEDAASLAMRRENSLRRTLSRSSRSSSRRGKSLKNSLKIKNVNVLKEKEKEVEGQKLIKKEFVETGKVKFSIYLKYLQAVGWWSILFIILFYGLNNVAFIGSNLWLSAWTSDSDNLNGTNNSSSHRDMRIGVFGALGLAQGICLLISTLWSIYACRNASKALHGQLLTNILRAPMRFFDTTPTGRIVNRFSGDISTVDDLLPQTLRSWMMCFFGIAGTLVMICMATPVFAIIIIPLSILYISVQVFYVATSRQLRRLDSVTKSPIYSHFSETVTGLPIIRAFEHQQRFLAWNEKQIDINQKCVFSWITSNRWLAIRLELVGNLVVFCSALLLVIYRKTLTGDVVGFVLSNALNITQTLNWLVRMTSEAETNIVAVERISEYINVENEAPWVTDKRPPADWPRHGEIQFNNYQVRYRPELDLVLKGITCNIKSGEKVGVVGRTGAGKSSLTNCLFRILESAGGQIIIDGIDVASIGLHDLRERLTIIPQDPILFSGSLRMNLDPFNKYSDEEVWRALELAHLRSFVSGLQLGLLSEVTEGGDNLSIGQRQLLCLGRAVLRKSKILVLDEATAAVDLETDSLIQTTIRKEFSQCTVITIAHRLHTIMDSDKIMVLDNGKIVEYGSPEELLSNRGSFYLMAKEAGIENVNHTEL

As to `COc1ccc2c(c[n+](C)c3c4cc5c(cc4ccc23)OCO5)c1OC` [CHELERYTHRINE], the Activity entry is “substrate []”.
